The numbers were not newly measured in PMC4982639, “Structural Basis of Microtubule Destabilization by Potent Auristatin Anti-Mitotics” (PLoS ONE, 2016), which cites them from elsewhere.

For data set [1], the system named is free tubulin. The text has this: (§1) Low resolution crystal structures of dolastatin 10 derivatives in complex with tubulin have further confirmed the region of binding for the auristatins, which overlaps w ...
Data set [2] relates to tubulin. The settings on record: compared with vinca alkaloids, free tubulin.
Excerpt: as §1

The test system of data set [3] is cellular assays. The conditions noted are these: stated in the conclusions as background; no reference given.
The test system of data set [4] is cells expressing the CD30 epitope. The conditions noted are these: released in the cytosol from the internalized ADC Brentuximab vedotin. From the text: The mechanisms by which these molecules act on tubulin dimers include the induction of curved aggregates and inhibition of nucleotide exchange. MMAE comprises the four amino acids monomethylvaline (MeVal), valine (Val), dolaisoleuine (Dil) and dolaproine (Dap), and the carboxy-terminal amine norephedrine (Fig 1A). This agent provides the cytotoxic activity for the ADC Brentuximab vedotin, currently designated for relapsed Hodgkin lymphoma and anaplastic large cell lymphoma. Bren ...

For data set [5], the system named is tubulin dimers. The conditions noted are these: in vitro. From the text: This model of curvature between dimers is supported in vitro by the formation of curved spiral or r ...

For the compound dolastatin 10, the “type of inhibition of vinca alkaloids” value in data set [1] is given as “non-competitive inhibitor of the vinca alkaloids”. Besides, in data set [2], the “inhibition of nucleotide exchange” value is recorded as “much greater inhibition of nucleotide exchange”.

Regarding monomethyl auristatin E [MMAE], in data set [3], the “potency in cellular assays” value is “nano- and picomolar potency”. Further, the “cellular effect of released MMAE” value in data set [4] is “mitotic arrest and apoptosis”.

For the compound `CC[C@]1(O)C[C@@H]2CN(CCc3c([nH]c4ccccc34)[C@@](C(=O)OC)(c3cc4c(cc3OC)N(C)[C@H]3[C@@](O)(C(=O)OC)[C@H](OC(C)=O)[C@]5(CC)C=CCN6CC[C@]43[C@@H]65)C2)C1` [vinblastine], in data set [5], the “formation of curved aggregates” value was “formation of curved spiral or ring shaped aggregates”.

Regarding dolastatin, in data set [5], the “formation of curved aggregates” value was “formation of curved spiral or ring shaped aggregates”.

As for cryptophycin, in data set [5], the “formation of curved aggregates” value was “formation of curved spiral or ring shaped aggregates”.

Turning to monomethyl auristatin F [MMAF], the “potency in cellular assays” value in data set [3] was “nano- and picomolar potency”.
